Key:
[1] = Toxicity Evaluation (38-day medicated diet, liver necrosis and urate crystal deposition); type: in vivo, male broiler chickens; settings: 125 ppm in diet; for chickens with urate crystal deposition in the kidneys: affected/examined
Description: (§1) Compound of the present invention and 2-(4-fluorophenyl)-5-(N-methylpiperidin-4-yl)-3-(4-pyridyl)pyrrole were evaluated in anticoccidiosis assay and toxicology studies. In these studies, medicated diets were prepared by dissolving the proper quantity of the test compound in dimethylsulfoxide or acetone, mixing the resultant solution into a few grams of the basal diet, and then placing the mixture under a fume hood for dehydration. The dry mixture is made into a uniform premix with an electric grinder, and then blended with the desired quantity of basal diet for the final formulation in a commercial bowl mixer.
Day-old male broiler chickens are received on Day 0 of the trial, weighed, wingbanded, and placed on medicated or control diet in standard battery cages. Three treatments are used in the study: (A) medicated diet containing 125 ppm of 2-(4-fluorophenyl)-5-(N-methylpiperidin-4-yl)-3-(4-pyridyl)pyrrole; (B) medicated diet containing 125 ppm of 2-(4-fluorophenyl)-5-(N-ethylpiperidin-4-yl)-3-(4-pyridyl)pyrrole; and (C) no medication. A total of 48 chickens are utilized per treatment. Of these, 12 birds (2 replicates of 6) are examined on D7, D14, D24 and D38 for liver necrosis and urate crystal deposition. Growth rates, feed efficiency and plasma levels are determined for background information. The trial is terminated on D38.

[2] = Acute Toxicity Evaluation (intraperitoneal, twice a day for three days); type: in vivo; settings: 100 mg/kg/day intraperitoneally, necropsy on day 4, two chickens per group
Description: For acute toxicity evaluation, chickens are dosed intraperitoneally twice a day at desired dose for three days. On day 4 birds are necropsied and examined for gross lesions and weight suppression. Two chickens are used in each treatment group.

[3] = test system: Eimeria acervulina, E. tenella; test: Anticoccidiosis assay (oocyst production in infected chickens on medicated diet); type: in vivo, White Leghorn chickens; set-up: key: at least 80% reduction in oocyst production are considered active; those with 50-79% are considered partially active; those with <50% are considered inactive; settings: 100 ppm in diet; chickens infected with E. acervulina or E. tenella
Description: as §1
One-day-old White Leghorn chickens are obtained from a commercial hatchery and acclimated in a holding room. At three days of age the test animals are selected by weight, wingbanded, and randomly placed on medicated or control diets for the duration of the experiment. One or two replicates of two birds are utilized per treatment. Following 24 h premedication, in each replicate one bird is infected with Eimeria acervulina, the other bird is infected with E. tenella. Both strains of Eimeria are sensitive to all anticoccidial products, and have been maintained in laboratory conditions for over 25 years. […] The measured parameters are weight gain, feed consumption and oocyst production. E. tenella lesion scores are also recorded for background information. […]

Compound	chickens showing liver necrosis or urate crystal deposition ([1]; 12 birds examined on each of D7, D14, D24 and D38)	liver necrosis / gross liver lesions at necropsy [2]	anticoccidial activity (reduction in oocyst production) [3]	chickens with urate crystal deposition in the kidneys ([1]; examined on D14)	chickens with urate crystal deposition in the kidneys ([1]; examined on D38)
CCN1CCC(c2cc(-c3ccncc3)c(-c3ccc(F)cc3)[nH]2)CC1 [2-(4-fluorophenyl)-5-(N-ethylpiperidin-4-yl)-3-(4-pyridyl)pyrrole]	None	none	active	–	–
CN1CCC(c2cc(-c3ccncc3)c(-c3ccc(F)cc3)[nH]2)CC1 [2-(4-fluorophenyl)-5-(N-methylpiperidin-4-yl)-3-(4-pyridyl)pyrrole]	–	demonstrated gross liver lesions	active	3/12	4/12

Source: patent US6384052B1, “Anticoccidial compounds” (Merck & Co., Inc., priority 1999, dated 2002)
